This note sets out measurements from patent publication US20040224958A1, “Pyridopyrimidinone derivatives for treatment of neurodegenerative disease” (priority 2000, published 2004).

One data set addresses cdk4/D (Homo sapiens, UniProt P11802). The data set can be described thus: Cyclin-Dependent Kinase 4 (cdk4) Assay. The data set is classed as biochemical. The note with it: Table 1; read-out: cdk4/D IC50.
For the next data set, the target named is Cdk5/p25 (Homo sapiens, UniProt Q00535). The data set can be described thus: Cyclin-Dependent Kinase 5 (cdk5) Assay. Particulars: Table 1. The data set is classed as biochemical. In outline: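 Radiometric filter-plate assay: components premixed 5 min, reaction started with histone substrate and [^32P]ATP, 45 min at 30° C.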
The target of another data set is cdk2/cyclinE (Homo sapiens, UniProt P24941). Kind of data set: Cyclin-Dependent Kinase Assay cdk2/cyclinE. Particulars: cdk2/E IC50, Table 1.
Another data set has as its target cdk2/cyclinA (Homo sapiens, UniProt P24941). Kind of data set: Cyclin-Dependent Kinase Assay cdk2/cyclinA. The note with it: cdk2/A IC50, Table 1.
The next data set concerns the target cdc2/cyclinB (Homo sapiens, UniProt P06493). The data set can be described thus: Cyclin-Dependent Kinase Assay cdc2/cyclinB.

What is called melting point is the temperature, or range, at which the solid turns liquid.

pIC50: −log10 of the molar value.

Chain of cdk4/D (P11802 whole entry): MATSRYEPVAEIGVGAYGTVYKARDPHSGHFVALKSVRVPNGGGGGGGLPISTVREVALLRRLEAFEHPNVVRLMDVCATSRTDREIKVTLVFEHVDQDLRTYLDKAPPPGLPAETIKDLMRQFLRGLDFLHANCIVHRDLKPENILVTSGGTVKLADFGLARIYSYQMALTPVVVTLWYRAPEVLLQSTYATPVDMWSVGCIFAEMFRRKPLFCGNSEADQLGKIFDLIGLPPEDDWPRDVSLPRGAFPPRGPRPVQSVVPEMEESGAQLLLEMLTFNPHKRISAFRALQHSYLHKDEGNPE
Chain of cdk4/D (P24385 whole entry, further chain): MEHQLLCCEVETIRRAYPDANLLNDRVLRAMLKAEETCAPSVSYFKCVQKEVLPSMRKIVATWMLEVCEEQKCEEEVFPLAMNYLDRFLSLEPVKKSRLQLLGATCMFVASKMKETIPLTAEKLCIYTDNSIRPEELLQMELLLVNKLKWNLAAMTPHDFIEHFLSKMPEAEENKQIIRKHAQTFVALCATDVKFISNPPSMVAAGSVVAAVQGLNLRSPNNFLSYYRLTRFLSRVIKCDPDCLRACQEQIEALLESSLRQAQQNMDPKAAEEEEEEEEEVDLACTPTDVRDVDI
Chain of cdc2/cyclinB (P06493 whole entry): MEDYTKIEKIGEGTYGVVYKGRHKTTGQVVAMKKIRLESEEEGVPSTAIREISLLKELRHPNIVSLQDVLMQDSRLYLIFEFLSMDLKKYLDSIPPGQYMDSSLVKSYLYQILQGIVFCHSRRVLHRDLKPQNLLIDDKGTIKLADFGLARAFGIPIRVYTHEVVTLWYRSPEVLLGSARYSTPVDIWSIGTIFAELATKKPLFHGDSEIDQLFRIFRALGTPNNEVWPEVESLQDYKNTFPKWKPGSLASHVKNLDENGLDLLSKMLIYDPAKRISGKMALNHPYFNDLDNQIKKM
Chain of cdc2/cyclinB (P14635 whole entry, further chain): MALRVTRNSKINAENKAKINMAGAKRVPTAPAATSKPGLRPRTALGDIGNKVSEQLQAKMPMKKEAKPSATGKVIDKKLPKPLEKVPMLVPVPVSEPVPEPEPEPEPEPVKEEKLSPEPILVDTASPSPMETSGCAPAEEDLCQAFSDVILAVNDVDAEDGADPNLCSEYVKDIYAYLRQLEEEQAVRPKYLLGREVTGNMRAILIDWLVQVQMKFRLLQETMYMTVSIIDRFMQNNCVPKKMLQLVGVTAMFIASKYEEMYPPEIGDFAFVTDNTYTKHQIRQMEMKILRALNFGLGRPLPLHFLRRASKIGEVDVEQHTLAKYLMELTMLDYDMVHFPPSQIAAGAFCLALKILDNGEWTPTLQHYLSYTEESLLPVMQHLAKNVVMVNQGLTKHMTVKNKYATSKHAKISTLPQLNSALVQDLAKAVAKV

The compound `O=c1ccc2cnc(Nc3ccc(N4CCC(O)CC4)cc3)nc2n1C1CCCCC1` [Example 215, 8-Cyclohexyl-2-[4-(4-hydroxy-piperidin-1-yl)-phenylamino]-8H-pyrido[2,3-d]pyrimidin-7-one] displayed a melting point of 224 to 225 °C. The pIC50 at cdk4/D is 8.12. The same compound showed a pIC50 against Cdk5/p25 of 7.61. The pIC50 against cdk2/cyclinE is 7.62. For the same compound, on cdk2/cyclinA, the pIC50 is 8.08. Moreover, the pIC50 against cdc2/cyclinB is 6.95.

For `O=c1ccc2cnc(Nc3ccc(OC(F)(F)C(F)F)cc3)nc2n1C1CC2CCC1C2` (stereo not drawn) [Example 219, 8-Bicyclo[2.2.1]hept-2-yl-2-[4-(1,1,2,2-tetrafluoro-ethoxy)-phenylamino]-8H-pyrido[2,3-d]pyrimidin-7-one], the melting point lay within 214 to 215 °C. On cdk4/D, the pIC50 was 6.11. In addition, on Cdk5/p25, the pIC50 was 6.25. The pIC50 at cdk2/cyclinE was 4.50. At cdk2/cyclinA, the pIC50 was 5.18. At cdc2/cyclinB, this compound showed a pIC50 of 5.15.

`O=c1ccc2cnc(Nc3ccc(F)c(F)c3)nc2n1C1CC2CCC1C2` (stereo not drawn) [Example 220, 8-Bicyclo[2.2.1]hept-2-yl-2-(3,4-difluoro-phenylamino)-8H-pyrido[2,3-d]pyrimidin-7-one] returned a melting point of 227 to 228 °C. In addition, the pIC50 on cdk4/D was 6.94. The compound further gave a pIC50 on Cdk5/p25 of 7.18. Besides, the pIC50 on cdk2/cyclinE is 7.30. The same compound had a pIC50 at cdk2/cyclinA of 7.24. Also, the pIC50 at cdc2/cyclinB is 5.78.

`O=c1ccc2cnc(Nc3ccc(N4CCC(O)CC4)cc3)nc2n1C1CC2CCC1C2` (stereo not drawn) [Example 227, 8-Bicyclo[2.2.1]hept-2-yl-2-[4-(4-hydroxy-piperidin-1-yl)-phenylamino]-8H-pyrido[2,3-d]pyrimidin-7-one] had a melting point of 206 °C. The pIC50 at cdk4/D is 8.55. In addition, the pIC50 at Cdk5/p25 is 7.44. This compound also had a pIC50 on cdk2/cyclinE of 7.25. This compound gave a pIC50 on cdk2/cyclinA of 7.68. The same compound gave a pIC50 against cdc2/cyclinB of 7.08.

`O=c1ccc2cnc(Nc3ccc(N4CCC(CCO)CC4)cc3)nc2n1C1CC2CCC1C2` (stereo not drawn) [Example 228, 8-Bicyclo[2.2.1]hept-2-yl-2-{4-[4-(2-hydroxy-ethyl)-piperidin-1-yl]-phenylamino}-8H-pyrido[2,3-d]pyrimidin-7-one] gave a melting point of 202 °C. In addition, the pIC50 on cdk4/D is 8.26. Also, the pIC50 at Cdk5/p25 is 7.41. This compound also showed a pIC50 against cdk2/cyclinE of 6.73. The pIC50 at cdk2/cyclinA is 7.01. The same compound had a pIC50 against cdc2/cyclinB of 6.42.

For `O=c1ccc2cnc(Nc3ccc(N4CCCC(CO)C4)cc3)nc2n1C1CC2CCC1C2` (stereo not drawn) [Example 231, 8-Bicyclo[2.2.1]hept-2-yl-2-[4-(3-hydroxymethyl-piperidin-1-yl)-phenylamino]-8H-pyrido[2,3-d]pyrimidin-7-one], the melting point is 152 °C. The pIC50 at cdk4/D was 8.68. At Cdk5/p25, this compound had a pIC50 of 6.78. On cdk2/cyclinE, the pIC50 was 7.07. At cdk2/cyclinA, this compound gave a pIC50 of 7.20. At cdc2/cyclinB, this compound had a pIC50 of 6.66.

Consider `CN1CCN(c2ccc(Nc3ncc4ccc(=O)n(C5CC6CCC5C6)c4n3)cc2)CC1` (stereo not drawn) [Example 252], for which the melting point was 233 to 234 °C. The pIC50 on cdk4/D was 8.21. This compound showed a pIC50 on Cdk5/p25 of 7.63. This compound had a pIC50 against cdk2/cyclinE of 6.99. The pIC50 against cdk2/cyclinA is 7.37. Moreover, the pIC50 against cdc2/cyclinB is 6.80.

Take `O=c1ccc2cnc(Nc3ccc(N4CCCCC4CO)cc3)nc2n1C1CC2CCC1C2` (stereo not drawn) [Example 253]: the melting point was in the range of 160 to 161 °C. The pIC50 on cdk4/D is 7.94. The compound further showed a pIC50 against Cdk5/p25 of 6.52. This compound had a pIC50 against cdk2/cyclinE of 6.83. For the same compound, on cdk2/cyclinA, the pIC50 was 6.96. At cdc2/cyclinB, this compound gave a pIC50 of 6.17.
